Laboratory results: US20260365699A1, “Compound Production Method” (The University of Tokyo, priority 2022, published 2026)
*1 amine or outer side, *2 acyl side, *3 side chain or, on linkers, in order; H or OH if unused. Where a SMILES comes first, the peptide text is derived from it. Bridges are numbered along the chain shown (N, C = ends). [ ]: non-standard residue; d: D form. The star is where a group is joined. X2 = C=C(N[*:2])c1nc(-c2nc(-c3nc(C(=O)NCCC(=O)NCCOCCOCCCCCCCl)cs3)ccc2C(=O)[*:1])cs1; X1 = C=C(N[*:2])c1nc(-c2nc(-c3nc(C(=O)OC)cs3)ccc2C(=O)[*:1])cs1; Nle = CCCC[C@H](N)C(=O)O; Dhb = C/C=C(\N)C(=O)O; Dha = C=C(N)C(=O)O; Cam = NC(=O)C*

How the values were obtained:
TNIK [1] = biological target: TNIK (Homo sapiens, UniProt Q9UKE5); experiment: Surface plasmon resonance (SPR) binding affinity to TNIK; conditions: saturated concentration of ATP (1 mM; 15-fold higher than KM)
TNIK (Homo sapiens, UniProt Q9UKE5), sequence (Q9UKE5 whole entry): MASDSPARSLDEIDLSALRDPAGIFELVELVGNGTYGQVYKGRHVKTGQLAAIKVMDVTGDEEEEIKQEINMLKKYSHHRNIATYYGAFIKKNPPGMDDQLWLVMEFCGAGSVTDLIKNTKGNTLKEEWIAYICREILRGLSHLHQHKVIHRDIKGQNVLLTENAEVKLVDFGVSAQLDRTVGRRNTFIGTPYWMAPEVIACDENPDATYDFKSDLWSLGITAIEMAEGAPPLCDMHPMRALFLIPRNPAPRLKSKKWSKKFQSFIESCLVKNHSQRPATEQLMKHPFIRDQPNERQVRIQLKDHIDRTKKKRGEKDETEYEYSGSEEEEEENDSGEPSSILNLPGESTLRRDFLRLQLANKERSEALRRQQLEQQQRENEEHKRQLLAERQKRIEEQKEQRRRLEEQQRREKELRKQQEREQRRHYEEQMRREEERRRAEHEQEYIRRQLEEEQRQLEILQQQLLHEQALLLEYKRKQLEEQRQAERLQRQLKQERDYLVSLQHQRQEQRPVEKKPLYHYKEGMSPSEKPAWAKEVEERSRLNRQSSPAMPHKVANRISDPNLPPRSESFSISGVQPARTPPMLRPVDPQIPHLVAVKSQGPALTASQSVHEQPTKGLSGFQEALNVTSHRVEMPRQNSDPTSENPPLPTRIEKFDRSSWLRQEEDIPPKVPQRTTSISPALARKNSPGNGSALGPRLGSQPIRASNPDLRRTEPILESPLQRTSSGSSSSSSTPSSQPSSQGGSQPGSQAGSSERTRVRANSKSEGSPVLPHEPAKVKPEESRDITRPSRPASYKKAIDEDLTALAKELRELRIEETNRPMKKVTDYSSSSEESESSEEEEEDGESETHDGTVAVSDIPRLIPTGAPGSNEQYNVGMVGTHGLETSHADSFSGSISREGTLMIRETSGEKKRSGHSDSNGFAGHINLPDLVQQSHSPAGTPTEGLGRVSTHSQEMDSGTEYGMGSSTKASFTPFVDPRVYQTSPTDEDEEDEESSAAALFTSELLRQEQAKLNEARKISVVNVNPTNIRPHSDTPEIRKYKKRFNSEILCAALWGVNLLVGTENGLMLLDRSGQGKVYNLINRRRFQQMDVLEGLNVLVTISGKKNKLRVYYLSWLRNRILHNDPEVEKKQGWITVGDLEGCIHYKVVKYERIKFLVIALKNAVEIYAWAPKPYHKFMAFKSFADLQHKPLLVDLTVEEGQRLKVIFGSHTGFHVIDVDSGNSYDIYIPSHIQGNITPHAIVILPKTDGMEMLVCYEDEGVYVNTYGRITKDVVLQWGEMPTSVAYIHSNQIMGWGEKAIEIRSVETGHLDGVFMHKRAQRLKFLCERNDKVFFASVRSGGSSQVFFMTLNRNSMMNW
Description: Surface plasmon resonance (SPR) was used to evaluate the binding affinity of the thiopeptide synthesized in Example 2 to TNIK.

[2] = Stability / reactivity towards glutathione (GSH), LC/MS; assay type: physicochemical; conditions: for reactivity with GSH, in words: increasing concentration of glutathione (GSH)
HEK293H cells = experiment: Chloroalkane penetration assay (CAPA) in HEK293H cells; assay type: cell-based, human; conditions: chloroalkane-labeled derivatives
Method: (§1) The sub-confluent HCT116 cells were treated with the indicated compounds for 24 hours and the cellular levels of TNIK, TNIK pSer764 (autophosphorylation product), c-Myc, and Axin2 were analyzed by an immunoblotting method (FIG. 7(b)) and RT-qPCR (FIG. 7(c)).
Next, it was confirmed whether or not the obtained compound could also access an intracellular target protein (TNIK is localized in the cytoplasm and the cell nucleus) in a human cell model. First, a chloroalkane penetration assay (CAPA) was performed on 4 types (TP1-ct, TP8-ct, TP14-ct, and TP15-ct) out of the 6 types of chloroalkane-labeled thiopeptide derivatives shown in FIG. 5 in order to measure an uptake degree into the cytoplasm (Peraro, L.; Deprey, K. L.; Moser, M. K.; Zou, Z.; Ball, H. L.; Levine, B.; and Kritzer, J. A. Cell Penetration Profiling Using the Chloroalkane Penetration Assay. J. Am. Chem. Soc. 2018, 140, 11360-11369).

[3] = tested on: NF-kB signaling pathway in THP-1 cells; experiment: Inhibition of NFkB reporter gene activity in THP1-XBlue stable cell line; assay type: cell-based, human
Description: (§2) FIG. 11(a) illustrates TL12 which is a lactazole-like binder of TLR10, retrosynthesis thereof, and amino acid building blocks used. FIG. 11(b) illustrates a binding affinity (KD value) to IRAK4 and an inhibition (IC50) by the synthesized thiopeptide. The half-life (τ1/2) in the human serum and the inhibition (IC50) of the NF-kB signaling pathway in THP-1 cells are also shown. These values were obtained by non-linear regression of the experimental data.: The shaded C in IR4 is hGln (which is a product of IAA alkylation of Cys, but is replaced by homoglutamine); the shaded M in IR15 is Nle (in which Met is replaced by Nle); and the shaded T in IR15 represents a Dhb residue. […] FIG. 11(c) illustrates the binding affinity (KD value) to TLR10 and the half-life (τ1/2) in the human serum.: The shaded C in TL1, TL8, and TL16 is hGln (a product of IAA alkylation of Cys, but is replaced by homoglutamine); the shaded M in TL8, TL11, TL12, TL13, and TL18 is Nle (in which Met is replaced by Nle); the shaded S in 8S of TL11 and TL12 represents a Dha residue; and the shaded S in 9S of TL12 represents an oxazole. […] FIG. 11(d) illustrates the results of a CAPA assay of IR1, IR15, and TP8. The assay was carried out in HEK293T cells.
(§3) Finally, the cell activity of the thiopeptide against IRAK4, which is an intracellular target protein localized in the cytoplasm and the cell nucleus, was examined. […]

[4] = Metabolic stability in human serum (LC/MS); assay type: in vitro ADME; conditions: 37 °C
Method: The compounds were incubated with a human serum at 37 °C, and the amount of the residual test substance at various points in time was quantified by LC/MS with respect to an internal standard substance. […] Next, it was examined whether or not the half-lives of the compounds were affected by the reactivity of the Dha residue. The Dha residue may be conjugated with various serum thiols.
In addition, the metabolic stability of all of the 14 types of candidate thiopeptides was examined. The compound was incubated with the human serum at 37 °C, and the amount of the residual thiopeptide at various points in time was quantified by LC/MS with respect to the internal standard substance. The half-life of the thiopeptide for TLR10 was generally as long as 38.2 hours, and the thiopeptide was stable.

HEK293T cells = experiment: Chloroalkane penetration assay (CAPA) in HEK293T cells; assay type: cell-based, human; conditions: compared with Tat
Description: as §2, §3

TNIK pSer764 = experiment: Immunoblotting of TNIK pSer764 (TNIK autophosphorylation) in HCT116 cells; assay type: cell-based, human; conditions: 20 μM of TP15, 24 hours, immunoblotting
Method: as §1
Nat. Commun. 2016, 7, 12586).

TNIK mRNA = TNIK mRNA level in HCT116 cells (RT-qPCR); assay type: cell-based, human
Method: as §1

TNIK [5] = experiment: TNIK protein level in HCT116 cells (immunoblotting); assay type: cell-based, human
Method: as §1

C=C1NC(=O)C(=C)NC(=O)[C@H](CCCCN)NC(=O)[C@H](CC(C)C)NC(=O)[C@H]([C@@H](C)O)NC(=O)[C@H](CCCCN)NC(=O)[C@H](Cc2ccc(O)cc2)NC(=O)[C@H]([C@@H](C)CC)NC(=O)[C@H](Cc2ccccc2)NC(=O)CNC(=O)[C@H](Cc2c[nH]c3ccccc23)NC(=O)c2ccc(-c3nc(C(=O)OC)cs3)nc2-c2csc(n2)C(=C)NC(=O)CNC1=O [TP1] (WGFIYKTLK[Dha][Dha]G; linker N-C via X1)
binding to TNIK in the presence of ATP (TNIK [1]): bonded to TNIK in the presence of the saturated concentration of ATP | reactivity with GSH, in words [2]: Dha11 and Dha12 in TP1 react with GSH | cytoplasmic uptake (CAPA), in words (HEK293H cells): efficient cytoplasmic translocation

C=C1NC(=O)c2csc(n2)[C@H]([C@@H](C)O)NC(=O)[C@H](C)NC(=O)[C@H]([C@@H](C)CC)NC(=O)[C@H](CCCNC(=N)N)NC(=O)CNC(=O)[C@H](CCCNC(=N)N)NC(=O)[C@H]([C@@H](C)O)NC(=O)[C@H](CCCNC(=N)N)NC(=O)[C@H]([C@@H](C)CC)NC(=O)[C@H]([C@@H](C)O)NC(=O)[C@H](Cc2c[nH]c3ccccc23)NC(=O)c2ccc(-c3nc(C(=O)NCCC(=O)NCCOCCOCCCCCCCl)cs3)nc2-c2csc1n2 [TP15-ct]
cytoplasmic uptake (CAPA), in words (HEK293H cells): taken up into HEK293H cells at a concentration of a single-digit μM

C=C1NC(=O)/C(=C/C)NC(=O)[C@H](Cc2c[nH]c3ccccc23)NC(=O)[C@H](Cc2c[nH]cn2)NC(=O)[C@H](Cc2c[nH]c3ccccc23)NC(=O)[C@H]([C@@H](C)O)NC(=O)[C@H]([C@@H](C)CC)NC(=O)[C@H](Cc2ccccc2)NC(=O)[C@H](CCC(N)=O)NC(=O)[C@H](CCCNC(=N)N)NC(=O)[C@H](CCCCN)NC(=O)[C@H](CCCC)NC(=O)[C@H](CO)NC(=O)[C@H](Cc2c[nH]c3ccccc23)NC(=O)c2ccc(-c3nc(C(=O)NCCC(=O)NCCOCCOCCCCCCCl)cs3)nc2-c2csc1n2 [IR15-ct] (WS[Nle]KRQFITWHW[Dhb]; linker N-C via X2)
inhibition of NFkB reporter gene activity, in words [3]: significant inhibition

C=C1NC(=O)CNC(=O)[C@H](CC(N)=O)NC(=O)[C@H](CC(C)C)NC(=O)CNC(=O)[C@H](CCCCN)NC(=O)[C@H](C)NC(=O)[C@H]([C@@H](C)CC)NC(=O)[C@H](CO)NC(=O)[C@H](Cc2c[nH]c3ccccc23)NC(=O)[C@H](C)NC(=O)[C@H](Cc2c[nH]c3ccccc23)NC(=O)c2ccc(-c3nc(C(=O)OC)cs3)nc2-c2csc1n2 [TP8] (WAWSIAKGLNG; linker N-C via X1)
half-life (τ1/2) in human serum [4]: 14 h | stability in human serum, in words [4]: good stability | binding to TNIK in the presence of ATP (TNIK [1]): bonded to TNIK in the presence of the saturated concentration of ATP

C=C1NC(=O)[C@H](CO)NC(=O)[C@H](CSCC(N)=O)NC(=O)CNC(=O)[C@H](Cc2ccc(O)cc2)NC(=O)[C@H](C)NC(=O)[C@H](CO)NC(=O)[C@H](CC(=O)O)NC(=O)CNC(=O)[C@H](CC(C)C)NC(=O)[C@H](Cc2c[nH]c3ccccc23)NC(=O)[C@H](Cc2c[nH]c3ccccc23)NC(=O)c2ccc(-c3nc(C(=O)OC)cs3)nc2-c2csc1n2 [TP4] (WWLGDSAYGC(Cam)S; linker N-C via X1)
half-life (τ1/2) in human serum [4]: 88 h | stability in human serum, in words [4]: good stability

C=C1NC(=O)C(=C)NC(=O)[C@H](CCCCN)NC(=O)[C@H](CC(C)C)NC(=O)[C@H]([C@@H](C)O)NC(=O)[C@H](CCCCN)NC(=O)[C@H](Cc2ccc(O)cc2)NC(=O)[C@H]([C@@H](C)CC)NC(=O)[C@H](Cc2ccccc2)NC(=O)CNC(=O)[C@H](Cc2c[nH]c3ccccc23)NC(=O)c2ccc(-c3nc(C(=O)NCCC(=O)NCCOCCOCCCCCCCl)cs3)nc2-c2csc(n2)C(=C)NC(=O)CNC1=O [TP1-ct] (WGFIYKTLK[Dha][Dha]G; linker N-C via X2)
cytoplasmic uptake (CAPA), in words (HEK293H cells): taken up into HEK293H cells at a concentration of a single-digit μM

C=C1NC(=O)CNC(=O)[C@H](CCCNC(=N)N)NC(=O)[C@H](Cc2ccc(O)cc2)NC(=O)[C@H](CC(C)C)NC(=O)[C@H](CO)NC(=O)[C@H](CCCCN)NC(=O)[C@H](CC(N)=O)NC(=O)CNC(=O)[C@H](Cc2ccccc2)NC(=O)[C@H](Cc2c[nH]c3ccccc23)NC(=O)[C@H](Cc2c[nH]c3ccccc23)NC(=O)c2ccc(-c3nc(C(=O)NCCC(=O)NCCOCCOCCCCCCCl)cs3)nc2-c2csc1n2 [TP14-ct] (WWFGNKSLYRG; linker N-C via X2)
cytoplasmic uptake (CAPA), in words (HEK293H cells): taken up into HEK293H cells at a concentration of a single-digit μM

C=C1NC(=O)/C(=C/C)NC(=O)[C@H](Cc2c[nH]c3ccccc23)NC(=O)[C@H](Cc2c[nH]cn2)NC(=O)[C@H](Cc2c[nH]c3ccccc23)NC(=O)[C@H]([C@@H](C)O)NC(=O)[C@H]([C@@H](C)CC)NC(=O)[C@H](Cc2ccccc2)NC(=O)[C@H](CCC(N)=O)NC(=O)[C@H](CCCNC(=N)N)NC(=O)[C@H](CCCCN)NC(=O)[C@H](CCCC)NC(=O)[C@H](CO)NC(=O)[C@H](Cc2c[nH]c3ccccc23)NC(=O)c2ccc(-c3nc(C(=O)OC)cs3)nc2-c2csc1n2 [IR15] (WS[Nle]KRQFITWHW[Dhb]; linker N-C via X1)
uptake into cytoplasm of HEK293T cells, in words (HEK293T cells): taken up into the cytoplasm of HEK293T cells much more efficiently than Tat | uptake into HEK293T cells relative to Tat (HEK293T cells; in the presence of serum): 2 fold

OC1CCC(Oc2cccc3cnc(Nc4ccc5nc[nH]c5c4)nc23)CC1 (centres unmarked) [NCB0846, reference compound]
level of TNIK pSer764 (TNIK pSer764): the same | overall expression of TNIK, mRNA level (TNIK mRNA): down-regulated | overall expression of TNIK, protein level (TNIK [5]): down-regulated

C=C1NC(=O)CNC(=O)[C@H](CCCNC(=N)N)NC(=O)[C@H](Cc2ccc(O)cc2)NC(=O)[C@H](CC(C)C)NC(=O)[C@H](CO)NC(=O)[C@H](CCCCN)NC(=O)[C@H](CC(N)=O)NC(=O)CNC(=O)[C@H](Cc2ccccc2)NC(=O)[C@H](Cc2c[nH]c3ccccc23)NC(=O)[C@H](Cc2c[nH]c3ccccc23)NC(=O)c2ccc(-c3nc(C(=O)OC)cs3)nc2-c2csc1n2 [TP14] (WWFGNKSLYRG; linker N-C via X1)
stability in human serum, in words [4]: short half-life | binding to TNIK in the presence of ATP (TNIK [1]): bonded to TNIK in the presence of the saturated concentration of ATP | residual amount in the presence of GSH ([2]; 10 mM GSH, after 24 hours): > 95% | reactivity with GSH, in words [2]: stable | cytoplasmic uptake (CAPA), in words (HEK293H cells): efficient cytoplasmic translocation

C=C1NC(=O)[C@H](CCCCN)NC(=O)[C@H](Cc2ccc(O)cc2)NC(=O)[C@H]([C@@H](C)CC)NC(=O)[C@H](CCCNC(=N)N)NC(=O)[C@H](CCCNC(=N)N)NC(=O)[C@H](CCCCN)NC(=O)[C@H](Cc2ccccc2)NC(=O)[C@H](CC(C)C)NC(=O)[C@H](CCSC)NC(=O)[C@H](CO)NC(=O)[C@H](Cc2c[nH]c3ccccc23)NC(=O)c2ccc(-c3nc(C(=O)NCCC(=O)NCCOCCOCCCCCCCl)cs3)nc2-c2csc1n2 [IR1-ct] (WSMLFKRRIYK; linker N-C via X2)
inhibition of NFkB reporter gene activity, in words [3]: significant inhibition
